# Data reported in patent US20240199558A1, “2,4,6-TRISUBSTITUTED 1,3,5-TRIAZINES AS MODULATORS OF CX3CR1” (ASTRAZENECA AB, priority 2022, published 2024).
# Target: CX3CR1 (Homo sapiens (Human), UniProt P49238)
# Assay: hCX3CR1 [3H]-AZD8797 competitive binding assay (filter)
# Settings: CHO-hCX3CR1 membranes, 2 nM [3H]-AZD8797
# Experimental: hCX3CR1 [^3H]-AZD8797 Competitive Binding Assay (Filter)
# CHO-hCX3CR1 membranes (9 μg per well) together with 2 nM [^3H]-AZD8797 and different concentrations of competitor compound were incubated in 25 mM HEPES (pH 7.4), 10 mM MgCl2, 1 mM CaCl2) and 0.5% BSA in a Corning polystyrene flat-bottom 96-well plate. The plate was incubated for 2 h at room temperature before free radioligand was separated from bound by vacuum filtration on to a Multiscreen HTS+HiFlow FB (Millipore) filter plate, using a Biomek FX (Beckman Coulter). The filter plate was washed in ice-cold 25 mM HEPES (pH 7.4), 5 mM MgCl2, 1 mM CaCl2) and 500 mM NaCl and dried at 50° C. for 1 h. Scintillation cocktail, Optiphase Supermix (PerkinElmer) was added to each well and the radioactivity was measured using a MicroBeta Trilux reader (PerkinElmer). The DMSO concentration was held constant at 1%.
# Sequence of CX3CR1 (P49238 whole entry): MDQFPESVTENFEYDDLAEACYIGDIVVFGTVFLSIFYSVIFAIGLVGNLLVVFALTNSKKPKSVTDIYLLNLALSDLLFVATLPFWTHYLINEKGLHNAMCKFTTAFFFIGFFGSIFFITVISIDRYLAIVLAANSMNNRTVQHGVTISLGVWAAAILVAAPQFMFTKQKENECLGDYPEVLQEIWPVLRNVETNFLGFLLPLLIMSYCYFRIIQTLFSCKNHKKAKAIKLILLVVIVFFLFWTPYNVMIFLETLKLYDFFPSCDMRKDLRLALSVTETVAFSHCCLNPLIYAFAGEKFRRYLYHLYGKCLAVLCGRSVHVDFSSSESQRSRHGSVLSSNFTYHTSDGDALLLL
row,Compound,IC50 [nM]
1,"CC(C)C[C@H](CO)Nc1nc(CC(C)c2ccc(N=S(C)(C)=O)cc2)nc(NS(C)(=O)=O)n1 (stereo partly drawn) [Example 63, N-(4-(2-(4-((Dimethyl(oxo)-λ^6-sulfaneylidene)amino)phenyl)propyl)-6-(((R)-1-hydroxy-4-methylpentan-2-yl)amino)-1,3,5-triazin-2-yl)methanesulfonamide]",114
2,"CC(C)C[C@H](CO)Nc1nc(CC(C)c2ccc(CC#N)cc2)nc(NS(C)(=O)=O)n1 (stereo partly drawn) [Example 55, N-(4-(2-(4-(Cyanomethyl)phenyl)propyl)-6-(((R)-1-hydroxy-4-methylpentan-2-yl)amino)-1,3,5-triazin-2-yl)methanesulfonamide]",139
3,"CCOc1ccc(C(C)Cc2nc(N[C@@H](CO)CC(C)C)nc(NS(C)(=O)=O)n2)cc1Cl (stereo partly drawn) [Example 98, N-(4-(2-(3-Chloro-4-ethoxyphenyl)propyl)-6-(((R)-1-hydroxy-4-methylpentan-2-yl)amino)-1,3,5-triazin-2-yl)methanesulfonamide]",427
4,"CC(C)C[C@H](CO)Nc1nc(CC(C)c2ccc(-n3ccnn3)cc2)nc(NS(C)(=O)=O)n1 (stereo partly drawn) [Example 64, N-(4-(2-(4-(1H-1,2,3-Triazol-1-yl)phenyl)propyl)-6-(((R)-1-hydroxy-4-methylpentan-2-yl)amino)-1,3,5-triazin-2-yl)methanesulfonamide]",302
5,"COc1ccc([C@@H](C)Cc2nc(N[C@@H](CO)CC(C)C)nc(NS(C)(=O)=O)n2)c(F)n1 (single isomer, unassigned) [Example 86, N-(4-((S*)-2-(2-Fluoro-6-methoxypyridin-3-yl)propyl)-6-(((R)-1-hydroxy-4-methylpentan-2-yl)amino)-1,3,5-triazin-2-yl)methanesulfonamide]",73
6,"CCOc1ccc([C@@H](C)Cc2nc(N[C@@H](CO)CC(C)C)nc(NS(C)(=O)=O)n2)cn1 (single isomer, unassigned) [Example 28, N-(4-((S*)-2-(6-Ethoxypyridin-3-yl)propyl)-6-(((R)-1-hydroxy-4-methylpentan-2-yl)amino)-1,3,5-triazin-2-yl)methanesulfonamide]",2780
7,"CC(C)C[C@H](CO)Nc1nc(C[C@@H](C)c2cc(Cl)ccc2F)nc(NS(C)(=O)=O)n1 (single isomer, unassigned) [Example 30, N-(4-((R*)-2-(5-Chloro-2-fluorophenyl)propyl)-6-(((R)-1-hydroxy-4-methylpentan-2-yl)amino)-1,3,5-triazin-2-yl)methanesulfonamide]",148
8,"CC(C)C[C@H](CO)Nc1nc(C[C@@H](C)c2c(F)cc(F)cc2F)nc(NS(C)(=O)=O)n1 (single isomer, unassigned) [Example 40, N-(4-(((R)-1-Hydroxy-4-methylpentan-2-yl)amino)-6-((R*)-2-(2,4,6-trifluorophenyl)propyl)-1,3,5-triazin-2-yl)methanesulfonamide]",65
9,"CC(C)C[C@H](CO)Nc1nc(C[C@H](C)c2cc(F)c(Cl)cc2F)nc(NS(C)(=O)=O)n1 (single isomer, unassigned) [Example 37, N-(4-((S*)-2-(4-Chloro-2,5-difluorophenyl)propyl)-6-(((R)-1-hydroxy-4-methylpentan-2-yl)amino)-1,3,5-triazin-2-yl)methanesulfonamide]",1930
10,"CC(C)C[C@H](CO)Nc1nc(C[C@H](C)c2ccnc(F)c2)nc(NS(C)(=O)=O)n1 (single isomer, unassigned) [Example 90, N-(4-((S*)-2-(2-Fluoropyridin-4-yl)propyl)-6-(((R)-1-hydroxy-4-methylpentan-2-yl)amino)-1,3,5-triazin-2-yl)methanesulfonamide]",1700
11,"CC(C)C[C@H](CO)Nc1nc(C[C@@H](C)c2cc(F)c(F)cc2F)nc(NS(C)(=O)=O)n1 (single isomer, unassigned) [Example 36, N-(4-(((R)-1-Hydroxy-4-methylpentan-2-yl)amino)-6-((R*)-2-(2,4,5-trifluorophenyl)propyl)-1,3,5-triazin-2-yl)methanesulfonamide]",504
12,"CC(C)C[C@H](CO)Nc1nc(CC(C)c2ccc3ocnc3c2)nc(NS(C)(=O)=O)n1 (stereo partly drawn) [Example 62, N-(4-(2-(Benzo[d]oxazol-5-yl)propyl)-6-(((R)-1-hydroxy-4-methylpentan-2-yl)amino)-1,3,5-triazin-2-yl)methanesulfonamide]",140
13,"CC(C)C[C@H](CO)Nc1nc(CC(C)c2ccc(C#N)cc2)nc(NS(C)(=O)=O)n1 (stereo partly drawn) [Example 68, N-(4-(2-(4-Cyanophenyl)propyl)-6-(((R)-1-hydroxy-4-methylpentan-2-yl)amino)-1,3,5-triazin-2-yl)methanesulfonamide]",336

# The next lines start with the values.
row,IC50 [nM],Compound
1,339,"CCOc1ccc(C(C)Cc2nc(N[C@@H](CO)CC(C)C)nc(NS(C)(=O)=O)n2)cc1 (stereo partly drawn) [Example 123, N-(4-(2-(4-Ethoxyphenyl)propyl)-6-(((R)-1-hydroxy-4-methylpentan-2-yl)amino)-1,3,5-triazin-2-yl)methanesulfonamide]"
2,169,"CC(C)C[C@H](CO)Nc1nc(CC(C)c2ccc3c(c2)OCC(=O)N3C)nc(NS(C)(=O)=O)n1 (stereo partly drawn) [Example 129, N-(4-(((R)-1-Hydroxy-4-methylpentan-2-yl)amino)-6-(2-(4-methyl-3-oxo-3,4-dihydro-2H-benzo[b][1,4]oxazin-7-yl)propyl)-1,3,5-triazin-2-yl)methanesulfonamide]"
3,310,"CCOc1ccc(C(C)Cc2nc(N[C@@H](CO)CC(C)C)nc(NS(C)(=O)=O)n2)cn1 (stereo partly drawn) [Example 167, N-(4-(2-(6-Ethoxypyridin-3-yl)propyl)-6-(((R)-1-hydroxy-4-methylpentan-2-yl)amino)-1,3,5-triazin-2-yl)methanesulfonamide]"
4,2700,"CC(C)C[C@H](CO)Nc1nc(CC(C)c2cccc(C3(O)CC3)c2)nc(NS(C)(=O)=O)n1 (stereo partly drawn) [Example 158, N-(4-(((R)-1-Hydroxy-4-methylpentan-2-yl)amino)-6-(2-(3-(1-hydroxycyclopropyl)phenyl)propyl)-1,3,5-triazin-2-yl)methanesulfonamide]"
5,78,"CC(C)C[C@H](CO)Nc1nc(CC(C)c2cnc3c(ccn3C)c2)nc(NS(C)(=O)=O)n1 (stereo partly drawn) [Example 117, N-(4-(((R)-1-Hydroxy-4-methylpentan-2-yl)amino)-6-(2-(1-methyl-1H-pyrrolo[2,3-b]pyridin-5-yl)propyl)-1,3,5-triazin-2-yl)methanesulfonamide]"
6,771,"CC(C)C[C@H](CO)Nc1nc(C[C@H](C)c2ccc(Cl)cc2)nc(NS(C)(=O)=O)n1 (single isomer, unassigned) [Example 171, N-(4-((R*)-2-(4-Chlorophenyl)propyl)-6-(((R)-1-hydroxy-4-methylpentan-2-yl)amino)-1,3,5-triazin-2-yl)methanesulfonamide]"
7,173,"CC(C)C[C@H](CO)Nc1nc(CC(C)c2ccc(C#N)c(F)c2)nc(NS(C)(=O)=O)n1 (stereo partly drawn) [Example 141, N-(4-(2-(4-Cyano-3-fluorophenyl)propyl)-6-(((R)-1-hydroxy-4-methylpentan-2-yl)amino)-1,3,5-triazin-2-yl)methanesulfonamide]"
8,79,"CC(C)C[C@H](CO)Nc1nc(CC(C)c2ccc3c(c2)CN(C)C(=O)C3)nc(NS(C)(=O)=O)n1 (stereo partly drawn) [Example 130, N-(4-(((R)-1-Hydroxy-4-methylpentan-2-yl)amino)-6-(2-(2-methyl-3-oxo-1,2,3,4-tetrahydroisoquinolin-7-yl)propyl)-1,3,5-triazin-2-yl)methanesulfonamide]"
9,4350,CC(C)C[C@H](CO)Nc1nc(CC(C)c2cccc(-c3ccccc3)c2)nc(NS(C)(=O)=O)n1 (some centres unmarked) [Example 157]
10,184,"COc1ccc(C(C)Cc2nc(N[C@@H](CO)CC(C)C)nc(NS(C)(=O)=O)n2)cc1 (stereo partly drawn) [Example 113, N-(4-(((R)-1-Hydroxy-4-methylpentan-2-yl)amino)-6-(2-(4-methoxyphenyl)propyl)-1,3,5-triazin-2-yl)methanesulfonamide]"
11,257,"CC(C)C[C@H](CO)Nc1nc(CC(C)c2ccc3c(=O)n(C)cnc3c2)nc(NS(C)(=O)=O)n1 (stereo partly drawn) [Example 126, N-(4-(((R)-1-Hydroxy-4-methylpentan-2-yl)amino)-6-(2-(3-methyl-4-oxo-3,4-dihydroquinazolin-7-yl)propyl)-1,3,5-triazin-2-yl)methanesulfonamide]"
12,104,"CC(C)C[C@H](CO)Nc1nc(CC(C)c2cccc(F)c2O)nc(NS(C)(=O)=O)n1 (stereo partly drawn) [Example 135, N-(4-(2-(3-Fluoro-2-hydroxyphenyl)propyl)-6-(((R)-1-hydroxy-4-methylpentan-2-yl)amino)-1,3,5-triazin-2-yl)methanesulfonamide]"
13,34,"CC(C)C[C@H](CO)Nc1nc(CC(C)c2cc(F)c(CO)c(F)c2)nc(NS(C)(=O)=O)n1 (stereo partly drawn) [Example 110, N-(4-(2-(3,5-Difluoro-4-(hydroxymethyl)phenyl)propyl)-6-(((R)-1-hydroxy-4-methylpentan-2-yl)amino)-1,3,5-triazin-2-yl)methanesulfonamide]"
14,123,"CC(C)C[C@H](CO)Nc1nc(CC(C)c2cccc(C3COC3)c2)nc(NS(C)(=O)=O)n1 (stereo partly drawn) [Example 105, N-(4-(((R)-1-Hydroxy-4-methylpentan-2-yl)amino)-6-(2-(3-(oxetan-3-yl)phenyl)propyl)-1,3,5-triazin-2-yl)methanesulfonamide]"
15,77,"COc1cccc(C(C)Cc2nc(N[C@@H](CO)CC(C)C)nc(NS(C)(=O)=O)n2)c1F (stereo partly drawn) [Example 99, N-(4-(2-(2-Fluoro-3-methoxyphenyl)propyl)-6-(((R)-1-hydroxy-4-methylpentan-2-yl)amino)-1,3,5-triazin-2-yl)methanesulfonamide]"
16,1250,CC(C)C[C@H](CO)Nc1nc(CC(C)c2ccc(F)c(C#N)c2)nc(NS(C)(=O)=O)n1 (some centres unmarked) [Example 161]
